Laboratory results from patent publication US20050197350A1, “Novel quinoline, tetrahydroquinazoline, and pyrimidine derivatives and methods of treatment related to the use thereof” (TAISHO PHARMACEUTICAL CO., LTD., priority 2003, published 2005).

The molecules below were run on MCH receptors (assay: MCH receptor activity class (method not given)). Conditions: class by percent of control at 10^−7 M or IC50.

SMILES	class
Cc1cc(N(C)C)nc(N[C@H]2CC[C@@H](C(=O)NCc3cccc(F)c3F)CC2)n1 [compound 2820, cis-N-(2,3-difluorobenzyl)-4-{[4-(dimethylamino)-6-methylpyrimidin-2-yl]amino}cyclohexanecarboxamide]	1 (Class 1: The value of percent of control at 10^−7 M was less than 40% or the value of IC50 was less than 50 nM.)
Cc1cc(N(C)C)nc(N[C@H]2CC[C@@H](C(=O)NCc3ccc(Br)cc3F)CC2)n1 [compound 2821, cis-N-(4-bromo-2-fluorobenzyl)-4-{[4-(dimethylamino)-6-methylpyrimidin-2-yl]amino}cyclohexanecarboxamide]	1 (Class 1: The value of percent of control at 10^−7 M was less than 40% or the value of IC50 was less than 50 nM.)
Cc1cccc(CNC(=O)[C@H]2CC[C@@H](Nc3nc(C)cc(N(C)C)n3)CC2)c1 [compound 2822, cis-4-{[4-(dimethylamino)-6-methylpyrimidin-2-yl]amino}-N-(3-methylbenzyl)cyclohexanecarboxamide]	1 (Class 1: The value of percent of control at 10^−7 M was less than 40% or the value of IC50 was less than 50 nM.)
Cc1cc(N(C)C)nc(N[C@H]2CC[C@@H](C(=O)NCc3ccccc3OC(F)(F)F)CC2)n1 [compound 2823, cis-4-{[4-(dimethylamino)-6-methylpyrimidin-2-yl]amino}-N-[2-(trifluoromethoxy)benzyl]cyclohexanecarboxamide]	1 (Class 1: The value of percent of control at 10^−7 M was less than 40% or the value of IC50 was less than 50 nM.)
COc1cccc(C(=O)N[C@H]2CC[C@@H](Nc3nc(C)c(C)c(N(C)C)n3)CC2)c1 [compound 2824, N-(cis-4-{[4-(dimethylamino)-5,6-dimethylpyrimidin-2-yl]amino}cyclohexyl)-3-methoxybenzamide]	1 (Class 1: The value of percent of control at 10^−7 M was less than 40% or the value of IC50 was less than 50 nM.)
Cc1nc(N[C@H]2CC[C@@H](NC(=O)c3cc(O)nc(O)c3)CC2)nc(N(C)C)c1C [compound 2825]	3 (Class 3 The value of percent of control at 10^−7 M was more than 60% or the value of IC50 was more than 200 nM.)
Cc1nc(N[C@H]2CC[C@@H](NC(=O)c3cnccn3)CC2)nc(N(C)C)c1C [compound 2826]	3 (Class 3 The value of percent of control at 10^−7 M was more than 60% or the value of IC50 was more than 200 nM.)
Cc1nc(N[C@H]2CC[C@@H](NC(=O)c3ccc(O)nc3)CC2)nc(N(C)C)c1C [compound 2827]	3 (Class 3 The value of percent of control at 10^−7 M was more than 60% or the value of IC50 was more than 200 nM.)
Cc1cc(C(=O)N[C@H]2CC[C@@H](Nc3nc(C)c(C)c(N(C)C)n3)CC2)no1 [compound 2828, N-(cis-4-{[4-(dimethylamino)-5,6-dimethylpyrimidin-2-yl]amino}cyclohexyl)-5-methylisoxazole-3-carboxamide]	2 (Class 2: The value of percent of control at 10^−7 M was from 40% to 60% or the value of IC′50 was from 50 nM to 200 nM.)
Cc1nc(C(=O)N[C@H]2CC[C@@H](Nc3nc(C)c(C)c(N(C)C)n3)CC2)co1 [compound 2830, N-(cis-4-{[4-(dimethylamino)-5,6-dimethylpyrimidin-2-yl]amino}cyclohexyl)-2-methyl-1,3-oxazole-4-carboxamide]	2 (Class 2: The value of percent of control at 10^−7 M was from 40% to 60% or the value of IC′50 was from 50 nM to 200 nM.)
Cc1ncccc1C(=O)N[C@H]1CC[C@@H](Nc2nc(C)c(C)c(N(C)C)n2)CC1 [compound 2831]	3 (Class 3 The value of percent of control at 10^−7 M was more than 60% or the value of IC50 was more than 200 nM.)
COc1ccc(C(=O)N[C@H]2CC[C@@H](Nc3nc(C)c(C)c(N(C)C)n3)CC2)c(OC)n1 [compound 2832, N-(cis-4-{[4-(dimethylamino)-5,6-dimethylpyrimidin-2-yl]amino}cyclohexyl)-2,6-dimethoxynicotinamide]	1 (Class 1: The value of percent of control at 10^−7 M was less than 40% or the value of IC50 was less than 50 nM.)
Cc1nc(N[C@H]2CC[C@@H](NC(=O)c3nccnc3N)CC2)nc(N(C)C)c1C [compound 2833]	2 (Class 2: The value of percent of control at 10^−7 M was from 40% to 60% or the value of IC′50 was from 50 nM to 200 nM.)
CCOc1ncccc1C(=O)N[C@H]1CC[C@@H](Nc2nc(C)c(C)c(N(C)C)n2)CC1 [compound 2834]	3 (Class 3 The value of percent of control at 10^−7 M was more than 60% or the value of IC50 was more than 200 nM.)
Cc1nc(N[C@H]2CC[C@@H](NC(=O)c3ccccn3)CC2)nc(N(C)C)c1C [compound 2835]	3 (Class 3 The value of percent of control at 10^−7 M was more than 60% or the value of IC50 was more than 200 nM.)
Cc1nc(N[C@H]2CC[C@@H](NC(=O)c3cccc(C#N)c3)CC2)nc(N(C)C)c1C [compound 2836, 3-cyano-N-(cis-4-{[4-(dimethylamino)-5,6-dimethylpyrimidin-2-yl]amino}cyclohexyl)benzamide]	1 (Class 1: The value of percent of control at 10^−7 M was less than 40% or the value of IC50 was less than 50 nM.)
Cc1cccc(C(=O)N[C@H]2CC[C@@H](Nc3nc(C)c(C)c(N(C)C)n3)CC2)c1 [compound 2837, N-(cis-4-{[4-(dimethylamino)-5,6-dimethylpyrimidin-2-yl]amino}cyclohexyl)-3-methylbenzamide]	1 (Class 1: The value of percent of control at 10^−7 M was less than 40% or the value of IC50 was less than 50 nM.)
Cc1nc(N[C@H]2CC[C@@H](NC(=O)c3cccc(Cl)c3)CC2)nc(N(C)C)c1C [compound 2838, 3-chloro-N-(cis-4-{[4-(dimethylamino)-5,6-dimethylpyrimidin-2-yl]amino}cyclohexyl)benzamide]	1 (Class 1: The value of percent of control at 10^−7 M was less than 40% or the value of IC50 was less than 50 nM.)
Cc1nc(N[C@H]2CC[C@@H](NC(=O)c3cccc(Br)c3)CC2)nc(N(C)C)c1C [compound 2839, 3-bromo-N-(cis-4-{[4-(dimethylamino)-5,6-dimethylpyrimidin-2-yl]amino}cyclohexyl)benzamide]	1 (Class 1: The value of percent of control at 10^−7 M was less than 40% or the value of IC50 was less than 50 nM.)
COc1cc(OC)cc(C(=O)N[C@H]2CC[C@@H](Nc3nc(C)c(C)c(N(C)C)n3)CC2)c1 [compound 2840, N-(cis-4-{[4-(dimethylamino)-5,6-dimethylpyrimidin-2-yl]amino}cyclohexyl)-3,5-dimethoxybenzamide]	1 (Class 1: The value of percent of control at 10^−7 M was less than 40% or the value of IC50 was less than 50 nM.)
Cc1nc(N[C@H]2CC[C@@H](NC(=O)c3cc(C(F)(F)F)cc(C(F)(F)F)c3)CC2)nc(N(C)C)c1C [compound 2841, N-(cis-4-{[4-(dimethylamino)-5,6-dimethylpyrimidin-2-yl]amino}cyclohexyl)-3,5-bis(trifluoromethyl)benzamide]	1 (Class 1: The value of percent of control at 10^−7 M was less than 40% or the value of IC50 was less than 50 nM.)
Cc1nc(N[C@H]2CC[C@@H](NC(=O)c3ccc(Cl)c(Cl)c3)CC2)nc(N(C)C)c1C [compound 2842, 3,4-dichloro-N-(cis-4-{[4-(dimethylamino)-5,6-dimethylpyrimidin-2-yl]amino}cyclohexyl)benzamide]	1 (Class 1: The value of percent of control at 10^−7 M was less than 40% or the value of IC50 was less than 50 nM.)
